Measured values taken from patent US5498775A, “Polyanionic benzylglycosides as inhibitors of smooth muscle cell proliferation” (American Home Products Corporation, priority 1994, dated 1996).
Counter-ions that a name gives are not always drawn.

Key:
[1] = system: normal human plasma; assay: Anticoagulant activity, partial thromboplastin time (APTT) assay; format: biochemical; details: for Anticoagulation Activity (APTT) Relative to Heparin: ratio >1 indicates weaker activity relative to heparin on a μg/mL comparison
Description: A BBL Fibrometer automatic precesion coagulation timer utilizing a 0.3 mL probe was employed. An Ellagic acid activated partial thromboplastin was used for these experiments. This reagent was added to human citrated plasma equilibrated at 37° C. in a plastic well in the clot timer. Calcium at 37° C. was added, the clot timer was started and the time for fibrin clot formation (in seconds) was recorded. […] Clotting tests at all concentrations were run in triplicate. Analysis of variance for a randomized block design was used to determine the significance of differences observed in the clotting times.

[2] = system: Porcine Smooth Muscle Cell; assay: Porcine smooth muscle cell antiproliferation, 3H thymidine incorporation; format: cell-based; details: for IC50: porcine aortic smooth muscle cells, 3H thymidine incorporation
Description: B. Effects of compounds on cell proliferation using ^3 H Thymidine incorporation
Cells were assayed in early passage (generally passage 3-7) at sub-confluent conditions. […] At sub-confluence, the cells were placed in a defined serum free medium (AIM-V; Gibco) for 24-48 h prior to initiating the experimental protocol.
Growth factor and serum stimulations were optimized for each cell type.
Compounds were added to each well at 50 fold dilution (20 μL/well) and the plates were incubated for 24-36 h at 37° C. in 5% CO2. […] Compounds were routinely assayed at 1, 10, and 100 μM.
At the completion of the experiment, plates were placed on ice, washed three times with ice cold PBS and incubated in ice cold 10% trichloroacetic acid (TCA) for 30 min to remove acid soluble proteins. Solution was transferred to scintillation vials containing 0.4N HCl (500 μL/vial to neutralize NaOH) and each well was rinsed two times with water (500 μL) for a total volume of 2 mL/vial.
Data was obtained, in triplicate, for both control and experimental samples. […] Experimental data was obtained from cells maximally stimulated with growth factor or serum and treated with compound. Data was expressed as a percent of control from which IC50 s could be determined.

Row | Compound | Anticoagulation Activity (APTT) Relative to Heparin [1] | other results
1 | O=C(CCC(=O)Nc1cc(CO[C@@H]2O[C@H](COS(=O)(=O)O)[C@@H](O[C@@H]3O[C@H](COS(=O)(=O)O)[C@@H](OS(=O)(=O)O)[C@H](OS(=O)(=O)O)[C@H]3OS(=O)(=O)O)[C@H](OS(=O)(=O)O)[C@H]2OS(=O)(=O)O)cc(CO[C@@H]2O[C@H](COS(=O)(=O)O)[C@@H](O[C@@H]3O[C@H](COS(=O)(=O)O)[C@@H](OS(=O)(=O)O)[C@H](OS(=O)(=O)O)[C@H]3OS(=O)(=O)O)[C@H](OS(=O)(=O)O)[C@H]2OS(=O)(=O)O)c1)Nc1cc(CO[C@@H]2O[C@H](COS(=O)(=O)O)[C@@H](O[C@@H]3O[C@H](COS(=O)(=O)O)[C@@H](OS(=O)(=O)O)[C@H](OS(=O)(=O)O)[C@H]3OS(=O)(=O)O)[C@H](OS(=O)(=O)O)[C@H]2OS(=O)(=O)O)cc(CO[C@@H]2O[C@H](COS(=O)(=O)O)[C@@H](O[C@@H]3O[C@H](COS(=O)(=O)O)[C@@H](OS(=O)(=O)O)[C@H](OS(=O)(=O)O)[C@H]3OS(=O)(=O)O)[C@H](OS(=O)(=O)O)[C@H]2OS(=O)(=O)O)c1 [EXAMPLE 22, N,N'-Bis[3,5-bis(hepta-O-sulfato-β-D-cellobiosyloxymethyl)phenyl]succinamide Octacosasodium Salt] | 2.0 | –
2 | O=C(Nc1cc(CO[C@@H]2O[C@H](COS(=O)(=O)O)[C@@H](O[C@@H]3O[C@H](COS(=O)(=O)O)[C@@H](OS(=O)(=O)O)[C@H](OS(=O)(=O)O)[C@H]3OS(=O)(=O)O)[C@H](OS(=O)(=O)O)[C@H]2OS(=O)(=O)O)cc(CO[C@@H]2O[C@H](COS(=O)(=O)O)[C@@H](O[C@@H]3O[C@H](COS(=O)(=O)O)[C@@H](OS(=O)(=O)O)[C@H](OS(=O)(=O)O)[C@H]3OS(=O)(=O)O)[C@H](OS(=O)(=O)O)[C@H]2OS(=O)(=O)O)c1)c1ccc(C(=O)Nc2cc(CO[C@@H]3O[C@H](COS(=O)(=O)O)[C@@H](O[C@@H]4O[C@H](COS(=O)(=O)O)[C@@H](OS(=O)(=O)O)[C@H](OS(=O)(=O)O)[C@H]4OS(=O)(=O)O)[C@H](OS(=O)(=O)O)[C@H]3OS(=O)(=O)O)cc(CO[C@@H]3O[C@H](COS(=O)(=O)O)[C@@H](O[C@@H]4O[C@H](COS(=O)(=O)O)[C@@H](OS(=O)(=O)O)[C@H](OS(=O)(=O)O)[C@H]4OS(=O)(=O)O)[C@H](OS(=O)(=O)O)[C@H]3OS(=O)(=O)O)c2)cc1 [EXAMPLE 23, N,N '-Bis[3,5-bis(hepta-O-sulfato-β-D-cellobiosyloxymethyl)phenyl]terephthalamide Octacosasodium Salt] | 2.0 | –
3 | O=C(Nc1cc(CO[C@@H]2O[C@H](COS(=O)(=O)O)[C@@H](OS(=O)(=O)O)[C@H](OS(=O)(=O)O)[C@H]2OS(=O)(=O)O)cc(CO[C@@H]2O[C@H](COS(=O)(=O)O)[C@@H](OS(=O)(=O)O)[C@H](OS(=O)(=O)O)[C@H]2OS(=O)(=O)O)c1)c1ccc(-c2ccc(C(=O)Nc3cc(CO[C@@H]4O[C@H](COS(=O)(=O)O)[C@@H](OS(=O)(=O)O)[C@H](OS(=O)(=O)O)[C@H]4OS(=O)(=O)O)cc(CO[C@@H]4O[C@H](COS(=O)(=O)O)[C@@H](OS(=O)(=O)O)[C@H](OS(=O)(=O)O)[C@H]4OS(=O)(=O)O)c3)cc2)cc1 [EXAMPLE 17, Biphenyl-4,4'-dicarboxylic Acid Bis{[3,5-bis(tetra-O-sulfato-β-D-glucosyloxymethyl)phenyl]amide}Hexadecasodium Salt] | – | Anticoagulation Activity (APTT), result in words ([1]; at 50 μg/mL): insignificant activity
4 | Decanedioic Acid Bis{[3,5-bis(hepta-O-sulfato-β-D-cellobiosyloxymethyl}phenyl]amide} Octacosasodium Salt [EXAMPLE 14] | 6.7 | IC50 [2]: 3 µM
5 | O=C(Nc1cc(CO[C@@H]2O[C@H](COS(=O)(=O)O)[C@@H](O[C@@H]3O[C@H](COS(=O)(=O)O)[C@@H](OS(=O)(=O)O)[C@H](OS(=O)(=O)O)[C@H]3OS(=O)(=O)O)[C@H](OS(=O)(=O)O)[C@H]2OS(=O)(=O)O)cc(CO[C@@H]2O[C@H](COS(=O)(=O)O)[C@@H](O[C@@H]3O[C@H](COS(=O)(=O)O)[C@@H](OS(=O)(=O)O)[C@H](OS(=O)(=O)O)[C@H]3OS(=O)(=O)O)[C@H](OS(=O)(=O)O)[C@H]2OS(=O)(=O)O)c1)c1ccc(-c2ccc(C(=O)Nc3cc(CO[C@@H]4O[C@H](COS(=O)(=O)O)[C@@H](O[C@@H]5O[C@H](COS(=O)(=O)O)[C@@H](OS(=O)(=O)O)[C@H](OS(=O)(=O)O)[C@H]5OS(=O)(=O)O)[C@H](OS(=O)(=O)O)[C@H]4OS(=O)(=O)O)cc(CO[C@@H]4O[C@H](COS(=O)(=O)O)[C@@H](O[C@@H]5O[C@H](COS(=O)(=O)O)[C@@H](OS(=O)(=O)O)[C@H](OS(=O)(=O)O)[C@H]5OS(=O)(=O)O)[C@H](OS(=O)(=O)O)[C@H]4OS(=O)(=O)O)c3)cc2)cc1 [EXAMPLE 15, Biphenyl-4,4'-dicarboxylic Acid Bis{[3,5-bis(hepta-O-sulfato-β-D-cellobiosyloxymethyl)phenyl]amide}Octacosasodium Salt] | 2.0-2.3 | –
6 | O=C(Nc1cc(CO[C@@H]2O[C@H](COS(=O)(=O)[O-])[C@@H](O[C@@H]3O[C@H](COS(=O)(=O)[O-])[C@H](OS(=O)(=O)[O-])[C@H](OS(=O)(=O)[O-])[C@H]3OS(=O)(=O)[O-])[C@H](OS(=O)(=O)[O-])[C@H]2OS(=O)(=O)[O-])cc(CO[C@@H]2O[C@H](COS(=O)(=O)[O-])[C@@H](O[C@@H]3O[C@H](COS(=O)(=O)[O-])[C@H](OS(=O)(=O)[O-])[C@H](OS(=O)(=O)[O-])[C@H]3OS(=O)(=O)[O-])[C@H](OS(=O)(=O)[O-])[C@H]2OS(=O)(=O)[O-])c1)c1ccc(-c2ccc(C(=O)Nc3cc(CO[C@@H]4O[C@H](COS(=O)(=O)[O-])[C@@H](O[C@@H]5O[C@H](COS(=O)(=O)[O-])[C@H](OS(=O)(=O)[O-])[C@H](OS(=O)(=O)[O-])[C@H]5OS(=O)(=O)[O-])[C@H](OS(=O)(=O)[O-])[C@H]4OS(=O)(=O)[O-])cc(CO[C@@H]4O[C@H](COS(=O)(=O)[O-])[C@@H](O[C@@H]5O[C@H](COS(=O)(=O)[O-])[C@H](OS(=O)(=O)[O-])[C@H](OS(=O)(=O)[O-])[C@H]5OS(=O)(=O)[O-])[C@H](OS(=O)(=O)[O-])[C@H]4OS(=O)(=O)[O-])c3)cc2)cc1.[Na+].[Na+].[Na+].[Na+].[Na+].[Na+].[Na+].[Na+].[Na+].[Na+].[Na+].[Na+].[Na+].[Na+].[Na+].[Na+].[Na+].[Na+].[Na+].[Na+].[Na+].[Na+].[Na+].[Na+].[Na+].[Na+].[Na+].[Na+] [EXAMPLE 16, Biphenyl-4,4'-dicarboxylic Acid Bis{[3,5-bis(hepta-O-sulfato-β-D-lactosyloxymethyl)phenyl]amide}Octacosasodium Salt] | 2.2 | IC50 [2]: 3.6 µM
7 | Cc1ccc(CO[C@@H]2O[C@H](COS(=O)(=O)O)[C@@H](OS(=O)(=O)O)[C@H](OS(=O)(=O)O)[C@H]2OS(=O)(=O)O)cc1NC(=O)CCC(=O)Nc1cc(CO[C@@H]2O[C@H](COS(=O)(=O)O)[C@@H](OS(=O)(=O)O)[C@H](OS(=O)(=O)O)[C@H]2OS(=O)(=O)O)ccc1C [EXAMPLE 25, N,N'-Bis[2-methyl-5-(2,3,4,6-tetra-O-suifato-β-D-glucopyranosyloxymethyl)phenyl]succinamide Octasodium Salt] | – | inhibition at 50 µg/mL ([2]; Sus scrofa, read-out: Porcine Smooth Muscle Cell Antiproliferation, % Inhibition at 50 μg/mL): 8%
